Assay [1] concerns cathepsin L and/or B. Briefly: Cleavage of Z-Phe-Arg-NHMec by Mono-S fractions of B cell lysosome extract. It is filed as biochemical, human. The note with it: presence or absence of E64, Fig 2a. Here is the method: (§1) The invention will now be described by reference to the following Examples and Figures wherein • Figure 1: Processing of TTCF by a leupeptin-insensitive cysteine endopeptidase activity. (a) TTCF was digested in vitro in the presence of disrupted lysosomes (1-2 µg) in the presence or absence of iodoacetamide (1 mM), leupeptin, E64 or pepstatin (each at 0.1 mg/ml). Digestions were in 0.1 M NH4 acetate at pH 4.5 or Na2HPO4, pH 6.0 or 7.0. After 4 hours at 37°C, the reactions were separated by Tris-tricine SDS-PAGE and stained with Coomassie Blue. (b) Cleavage sites: TTCF digestion products were separated by SDS PAGE and electrophoretically transferred to nitrocellulose membrane. Individual fragments numbered 1-6 were subjected to 5 cycles of Edman degradation. N-terminal sequence obtained is shown in bold following upstream residues from TTCF (tetanus toxin numbering). […] (c) Each fraction was analysed by SDS-PAGE and Western blotting. […] Release of 7-amino-4-methyl coumarin was measured after 10, 20 or 30 minutes. […] At different times the cells were washed, fixed in 0.05 % glutaraldehyde and antigen presentation measured using proliferation of different autologous TTCF-specific T cell clones. c, AEP pre-processing of TTCF speeds antigen presentation. […] Presentation was measured after 60 minutes of antigen pulsing using EBV B cells. […]

Assay [2] has as its target T1, asparaginyl endopeptidase activity (Homo sapiens, UniProt Q99538).
T1 construct: We next partially purified the TTCF processing activity from a crude B cell lysosome fraction; endogenous in cells; host or cells: human B cell line EDR; membrane pellet solubilised in citrate/CHAPS, Mono-S cation-exchange fractions
T1 sequence (Q99538 26-323 limits assumed): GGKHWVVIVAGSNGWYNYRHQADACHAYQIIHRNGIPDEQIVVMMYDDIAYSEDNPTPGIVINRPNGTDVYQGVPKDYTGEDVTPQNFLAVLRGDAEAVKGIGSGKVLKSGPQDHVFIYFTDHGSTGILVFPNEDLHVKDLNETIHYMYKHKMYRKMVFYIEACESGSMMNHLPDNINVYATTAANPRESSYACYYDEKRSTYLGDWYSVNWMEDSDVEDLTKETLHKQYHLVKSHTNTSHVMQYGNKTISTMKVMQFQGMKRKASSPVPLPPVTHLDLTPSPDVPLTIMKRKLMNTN
Briefly: Cleavage of Z-Ala-Ala-Asn-NHMec by Mono-S fractions of B cell lysosome extract. It is filed as biochemical. As to conditions: presence or absence of E64. On the procedure: as §1

Assay [3] deals with T2, TTCF processing activity (Homo sapiens, UniProt Q99538).
T2 construct: We next partially purified the TTCF processing activity from a crude B cell lysosome fraction; endogenous in cells; host or cells: human B cell line EDR; membrane pellet solubilised in citrate/CHAPS, Mono-S cation-exchange fractions
T2 sequence (Q99538 26-323 limits assumed): T1 sequence (Q99538 26-323 limits assumed)
Briefly: TTCF processing by Mono-S fractions of B cell lysosome extract. As to conditions: 10 µg TTCF, 4 hours at 37°C, Fig 2b. It is filed as biochemical. Here is the method: as §1

In assay [4] the target is T3, disrupted lysosomes isolated from the human B cell line EDR (TTCF processing activity) (Homo sapiens, UniProt Q99538).
T3 construct: disrupted lysosomes isolated from the human B cell line EDR; endogenous in cells; host or cells: human B cell line EDR, Percoll-gradient lysosomal fraction, disrupted
T3 sequence (Q99538 26-323 limits assumed): T1 sequence (Q99538 26-323 limits assumed)
Briefly: Digestion of TTCF by disrupted B cell lysosomes, SDS-PAGE readout. As to conditions: inhibitor at 0.1 mg/ml; pH 4.5; 4 hours at 37°C; Fig 1a. It is filed as biochemical. Here is the method:
The invention will now be described by reference to the following Examples and Figures wherein • Figure 1: Processing of TTCF by a leupeptin-insensitive cysteine endopeptidase activity. (a) TTCF was digested in vitro in the presence of disrupted lysosomes (1-2 µg) in the presence or absence of iodoacetamide (1 mM), leupeptin, E64 or pepstatin (each at 0.1 mg/ml). Digestions were in 0.1 M NH4 acetate at pH 4.5 or Na2HPO4, pH 6.0 or 7.0. After 4 hours at 37°C, the reactions were separated by Tris-tricine SDS-PAGE and stained with Coomassie Blue. (b) Cleavage sites: TTCF digestion products were separated by SDS PAGE and electrophoretically transferred to nitrocellulose membrane. Individual fragments numbered 1-6 were subjected to 5 cycles of Edman degradation. N-terminal sequence obtained is shown in bold following upstream residues from TTCF (tetanus toxin numbering). The N-terminal sequence of His-tagged TTCF was obtained for fragments 1 and 3. (c) Residues Asn 1184 and Glu 1184 in TTCF were mutated to alanine (see Methods) and digestions performed as before. The mutation abolishes cleavage at the mutated site but not at the first site (doublet at 47 kD). In this experiment cleavage of the third site was minimal. • Figure 2: TTCF is processed by an asparaginyl endopeptidase. (a) Chromatography of the TTCF processing activity on Mono-S resin. Fractions eluted by NaCl gradient were incubated with the substrates Z-Ala-Ala-Asn-NHMec or Z-Phe-Arg-NHMec in the presence or absence of E64 (trans-epoxysuccinyl-L-leucylamido-(4-guanidino)butane). […] (b) Fractions as above were incubated with 10 µg TTCF in the presence or absence of E64 for 4 hours at 37°C prior to SDS-PAGE analysis. (c) Each fraction was analysed by SDS-PAGE and Western blotting. Electrophoretically transferred material was probed with an affinity purified antiserum raised against the peptide KGIGSGKVLKSGPQC from human legumain^1. • Figure 3: Peptide inhibitors of AEP block asparaginyl endopeptidase activity and TTCF processing in vitro and in vivo. (a) TTCF was digested with purified AEP (legumain from pig kidney) in the presence or absence of 0.2 mg/ml of the peptides indicated. […] (b) Purified AEP or a crude lysosomal protease mixture were incubated with Z-Ala-Ala-Asn-NHMec, Z-Phe-Arg-NHMec (cathepsins L&B) or Z-Val-Val-Ala NHMec (cathepsin S) in the presence of increasing concentrations of AENK or AEQK. Release of 7-amino-4-methyl coumarin was measured after 10, 20 or 30 minutes. […] At different times the cells were washed, fixed in 0.05 % glutaraldehyde and co-cultured with autologous TTCF specific T cell clones. […] Proteins obtained from commercial sources, as described in the literature or custom peptides were digested with purified pig kidney legumain at pH 5.5 in the presence of 1 mM DTT. […] When present peptide was maintained during antigen pulsing at 1 mg/ml (a) or 2 mg/ml (b). At different times the cells were washed, fixed in 0.05 % glutaraldehyde and antigen presentation measured using proliferation of different autologous TTCF-specific T cell clones. c, AEP pre-processing of TTCF speeds antigen presentation. […] Presentation was measured after 60 minutes of antigen pulsing using EBV B cells.
[…]. […] Nor could we reproduce the lysosomal TTCF digestion pattern or indeed generate any of these fragments using purified cathepsins L, S, B, D or E , all of which have been implicated in the class II MHC antigen processing pathway (reviewed in refs 5 & 6).
TTCF processing activity. Lysosomal fractions from the human B cell line EDR were prepared on 27 % Percoll density gradients as previously described^8 using ^125I-labelled transferrin (internalised for 30 minutes at 37°C) and β-hexosaminidase to identify endosomal/plasma membrane and lysosomal fractions respectively. The peak of lysosomes was collected by centrifugation at 40,000 g for 1 hour, removed from the underlying Percoll pellet, collected again at 50,000 g for 1 hour and stored frozen. […]

Assay [5] deals with purified AEP (legumain from pig kidney). Briefly: Digestion of TTCF with purified AEP in the presence of tetrapeptides. It is filed as biochemical. As to conditions: 0.2 mg/ml peptide; Fig 3a. Here is the method: The invention will now be described by reference to the following Examples and Figures wherein • Figure 1: Processing of TTCF by a leupeptin-insensitive cysteine endopeptidase activity. (a) TTCF was digested in vitro in the presence of disrupted lysosomes (1-2 µg) in the presence or absence of iodoacetamide (1 mM), leupeptin, E64 or pepstatin (each at 0.1 mg/ml). Digestions were in 0.1 M NH4 acetate at pH 4.5 or Na2HPO4, pH 6.0 or 7.0. After 4 hours at 37°C, the reactions were separated by Tris-tricine SDS-PAGE and stained with Coomassie Blue. (b) Cleavage sites: TTCF digestion products were separated by SDS PAGE and electrophoretically transferred to nitrocellulose membrane. Individual fragments numbered 1-6 were subjected to 5 cycles of Edman degradation. N-terminal sequence obtained is shown in bold following upstream residues from TTCF (tetanus toxin numbering). The N-terminal sequence of His-tagged TTCF was obtained for fragments 1 and 3. (c) Residues Asn 1184 and Glu 1184 in TTCF were mutated to alanine (see Methods) and digestions performed as before. The mutation abolishes cleavage at the mutated site but not at the first site (doublet at 47 kD). In this experiment cleavage of the third site was minimal. • Figure 2: TTCF is processed by an asparaginyl endopeptidase. (a) Chromatography of the TTCF processing activity on Mono-S resin. Fractions eluted by NaCl gradient were incubated with the substrates Z-Ala-Ala-Asn-NHMec or Z-Phe-Arg-NHMec in the presence or absence of E64 (trans-epoxysuccinyl-L-leucylamido-(4-guanidino)butane). […] (b) Fractions as above were incubated with 10 µg TTCF in the presence or absence of E64 for 4 hours at 37°C prior to SDS-PAGE analysis. (c) Each fraction was analysed by SDS-PAGE and Western blotting. Electrophoretically transferred material was probed with an affinity purified antiserum raised against the peptide KGIGSGKVLKSGPQC from human legumain^1. • Figure 3: Peptide inhibitors of AEP block asparaginyl endopeptidase activity and TTCF processing in vitro and in vivo. […] Release of 7-amino-4-methyl coumarin was measured after 10, 20 or 30 minutes. […] At different times the cells were washed, fixed in 0.05 % glutaraldehyde and antigen presentation measured using proliferation of different autologous TTCF-specific T cell clones. c, AEP pre-processing of TTCF speeds antigen presentation. […] Presentation was measured after 60 minutes of antigen pulsing using EBV B cells.
We decided to test the possibility that high concentrations of asparagine containing peptides might act as competitive inhibitors. […] To establish that inhibition of AEP was specific, we measured the hydrolysis of different synthetic peptide substrates in the presence and absence of these tetrapeptides.

Entries after “also recorded” stand apart in the source; their conditions may differ. Residues, ends and D or L forms follow the SMILES beside them. *: point of attachment. Fmoc = O=C(OCC1c2ccccc2-c2ccccc21)*

`CC(C)C[C@H](NC(=O)[C@H]1O[C@@H]1C(=O)O)C(=O)NCCCCNC(=N)N` [E64, trans-epoxysuccinyl-L-leucylamido-(4-guanidino)butane]: the “inhibition of activity cleaving Z-Phe-Arg-NHMec” value in assay [1] is given as “completely inhibited”. The “effect on cleavage of Z-Ala-Ala-Asn-NHMec” value in assay [2] is recorded as “no inhibitory effect; also recorded: unaffected”. Further, the “effect on TTCF processing activity” value in assay [3] is “unaffected”. In assay [4], the “inhibition of lysosomal digestion of TTCF” value is listed as “could not inhibit”.

Regarding `NCCCC[C@H](NC(=O)OCC1c2ccccc2-c2ccccc21)C(=O)N[C@@H](CC(N)=O)C(=O)N[C@@H](CC(N)=O)C(=O)N[C@@H](CCC(=O)O)C(N)=O` [KNNE, Lys-Asn-Asn-Glu-NH] (Fmoc-KNNE-NH2), in assay [5], the “inhibition of processing of TTCF by AEP” value is on record as “also inhibited but was less effective”.
